The values below come from patent US20210198277A1, “AMINE-SUBSTITUTED ARYL OR HETEROARYL COMPOUNDS” (Epizyme, Inc., priority 2016, published 2021).

One experiment has as its target T1, EHMT1 (Homo sapiens, UniProt Q9H9B1).
T1 sequence (Q9H9B1 1-1298): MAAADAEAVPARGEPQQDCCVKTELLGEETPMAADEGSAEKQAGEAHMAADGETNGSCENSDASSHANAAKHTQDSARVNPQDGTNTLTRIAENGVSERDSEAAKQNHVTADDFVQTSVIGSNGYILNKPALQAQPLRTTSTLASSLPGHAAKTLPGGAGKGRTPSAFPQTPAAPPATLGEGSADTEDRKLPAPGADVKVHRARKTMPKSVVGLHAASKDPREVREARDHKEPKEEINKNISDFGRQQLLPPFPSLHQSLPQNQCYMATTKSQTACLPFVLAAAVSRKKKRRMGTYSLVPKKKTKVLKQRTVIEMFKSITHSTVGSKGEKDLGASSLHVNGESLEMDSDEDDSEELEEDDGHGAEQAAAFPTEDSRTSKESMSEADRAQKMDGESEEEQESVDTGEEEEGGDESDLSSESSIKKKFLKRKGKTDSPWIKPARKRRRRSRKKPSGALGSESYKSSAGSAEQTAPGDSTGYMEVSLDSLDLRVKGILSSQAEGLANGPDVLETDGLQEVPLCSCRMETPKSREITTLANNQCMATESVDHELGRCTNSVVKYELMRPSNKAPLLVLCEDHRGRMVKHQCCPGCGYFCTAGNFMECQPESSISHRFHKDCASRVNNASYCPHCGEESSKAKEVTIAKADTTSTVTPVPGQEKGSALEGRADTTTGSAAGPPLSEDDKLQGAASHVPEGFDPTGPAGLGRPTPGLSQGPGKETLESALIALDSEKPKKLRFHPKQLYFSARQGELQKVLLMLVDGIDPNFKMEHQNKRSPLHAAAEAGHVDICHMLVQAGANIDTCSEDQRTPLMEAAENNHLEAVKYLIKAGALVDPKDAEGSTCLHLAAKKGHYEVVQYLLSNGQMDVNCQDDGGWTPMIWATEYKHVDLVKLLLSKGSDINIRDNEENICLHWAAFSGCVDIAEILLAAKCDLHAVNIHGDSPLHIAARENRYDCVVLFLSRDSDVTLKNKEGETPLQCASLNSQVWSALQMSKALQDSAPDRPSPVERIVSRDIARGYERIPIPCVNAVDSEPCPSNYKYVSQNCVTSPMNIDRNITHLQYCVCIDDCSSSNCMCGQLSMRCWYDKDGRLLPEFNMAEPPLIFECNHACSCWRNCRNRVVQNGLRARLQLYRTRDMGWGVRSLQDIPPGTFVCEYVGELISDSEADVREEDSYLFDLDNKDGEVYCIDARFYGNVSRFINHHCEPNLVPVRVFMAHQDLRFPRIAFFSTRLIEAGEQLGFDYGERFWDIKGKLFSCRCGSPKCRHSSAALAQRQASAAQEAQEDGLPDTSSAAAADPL
As to the kind of experiment: EHMT1 enzyme assay on peptide substrate (EHMT1 PEP). The class given is biochemical. As to conditions: Table II; read-out: EHMT1 PEP (IC50 μM).

A further experiment addresses T2, human EHMT2 913-1193 (Homo sapiens, UniProt Q96KQ7).
T2 construct: recombinant purified human EHMT2 913-1193, Viva; purchased Viva
T2 sequence (Q96KQ7 913-1193): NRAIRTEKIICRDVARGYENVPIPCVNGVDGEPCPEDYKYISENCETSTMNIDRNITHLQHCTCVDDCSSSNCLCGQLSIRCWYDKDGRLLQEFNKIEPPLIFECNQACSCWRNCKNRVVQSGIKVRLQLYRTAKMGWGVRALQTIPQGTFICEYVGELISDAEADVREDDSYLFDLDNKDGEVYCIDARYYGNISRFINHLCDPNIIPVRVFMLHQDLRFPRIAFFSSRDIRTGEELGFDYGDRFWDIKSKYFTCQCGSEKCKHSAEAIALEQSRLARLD
The experiment can be described thus: EHMT2 enzyme assay on histone peptide substrate (EHMT2 PEP). The class given is biochemical. The conditions noted are these: Table II; read-out: EHMT2 PEP (IC50 μM). In a few lines:
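Inhibition is measured as reduced tritium incorporation into a biotinylated histone peptide from ^3H-SAM. The enzyme (0.031 nM) sees compound for 30 minutes before a 60-minute room-temperature reaction, which unlabeled SAM quenches prior to streptavidin Flashplate capture.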

Each structure is given as a SMILES string.

Take `COc1ccc(Nc2nccc(NC3CN(C(C)=O)C3)n2)cc1OCCCN1CCCC1` [Compound 192]: the IC50 at EHMT1 and on human EHMT2 913-1193 was 0.1 to 1 µM throughout.
In the case of `COc1ccc(Nc2nccc(N3CCS(=O)(=O)CC3)n2)cc1OCCCN1CCCC1` [Compound 169], the IC50 at EHMT1 and at human EHMT2 913-1193 was above 10 µM throughout.
